In patent US20100223839A1, “SYSTEMS AND PROCESSES FOR PRODUCING BIO-FUELS FROM LIGNOCELLULOSIC MATERIALS” (WASHINGTON STATE UNIVERSITY, priority 2009, published 2010):

System: Saccharomyces cerevisiae
Experiment: Toxic effect of selected bio-oil model compounds on yeast growth (inhibition rate)
Format: cell-based
Design: inhibition rate: unit not given here
Conditions: for inhibition of yeast growth, summary in words: summary of Table 4
Text: The nature and the range of lethal concentrations of many of these toxic compounds was not well known. Thus, we carried out tests with model compounds to identify which of them were toxic to yeasts.
The toxic effects of selected bio-oil compounds (acetic acid, propanoic acid, cyclopentanone, 2-furaldehyde, furfuryl alcohol, phenol, eugenol, acetol, 2-(5H)-furanone, stilbene, vanillin, syringaldehyde, o-cresol) on Saccharomyces cerevisiae were studied.

[1] = compound at 25% of CFBO (concentration found in bio-oils; Mallee fast pyrolysis oil, 500° C.)
[2] = compound at 50% of CFBO (concentration found in bio-oils; Mallee fast pyrolysis oil, 500° C.)
[3] = compound at 75% of CFBO (concentration found in bio-oils; Mallee fast pyrolysis oil, 500° C.)
[4] = compound at 100% of CFBO (concentration found in bio-oils; Mallee fast pyrolysis oil, 500° C.)

Compound	inhibition of yeast growth, summary in words	also measured
O=C1C=CCO1 [2-(5H)-Furanone]	also inhibitors but their inhibition rate is much lower	
O=Cc1ccco1 [2-furaldehyde]	also inhibitors but their inhibition rate is much lower	
CC(=O)O [Acetic acid]	most lethal compounds inhibiting yeast growth	
CC(=O)CO [Acetol]		inhibition rate [1]: 44.17; inhibition rate [2]: 77.80; inhibition rate [3]: 78.93; inhibition rate [4]: 80.07
C=CCc1ccc(O)c(OC)c1 [Eugenol]	most lethal compounds inhibiting yeast growth	
OCc1ccco1 [Furfuryl alcohol]	also inhibitors but their inhibition rate is much lower	
Cc1ccccc1O [O-cresol]		inhibition rate [1]: 2.61; inhibition rate [2]: 14.16; inhibition rate [3]: 23.38; inhibition rate [4]: 31.22
Cc1ccccc1C [O-xylol]		inhibition rate [1]: 5.01; inhibition rate [2]: 5.23; inhibition rate [3]: 5.33; inhibition rate [4]: 5.44
CCCCCCCCCCCCCCC [Petadecane]	also inhibitors but their inhibition rate is much lower	
Oc1ccccc1 [Phenol]	most lethal compounds inhibiting yeast growth	
CCC(=O)O [Propanoic acid]	most lethal compounds inhibiting yeast growth	
Oc1ccccc1O [Pyrocatechol]	most lethal compounds inhibiting yeast growth	
COc1cc(C=O)cc(OC)c1O [Syringaldehyde]	most lethal compounds inhibiting yeast growth	
CCCCCCCCCCCCCC [Tetradecane]	also inhibitors but their inhibition rate is much lower	
COc1cc(C=O)ccc1O [Vanillin]	most lethal compounds inhibiting yeast growth	
